In the supplement of paper PMC10733146:

Columns and labels:
Experiment in all cases: viability relative to DMSO control (fraction); higher = less drug effect (more viable cells)
Settings in all cases: 48 h
[1] = system: primary AML patient cells (S002)
Method in brief: (§1)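 Viability is given as CellTiter-Glo luminescence relative to the median of 16 inner DMSO wells. Fresh or cryopreserved primary mononuclear tumour cells from blood, bone marrow (both Ficoll-isolated) or processed lymph node were plated at 4 × 10^4 cells per well in 384-well plates against five pre-plated compound concentrations, one well each. Incubation lasted 48 h at 37 °C and 5% CO2 in RPMI-1640 with penicillin/streptomycin, L-glutamine and human serum.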

[2] = system: primary AML patient cells (S009)
Method in brief: as §1

[3] = system: primary AML patient cells (S011)
Method in brief: as §1

[4] = system: primary AML patient cells (S012)
Method in brief: as §1

[5] = system: primary AML patient cells (S017)
Method in brief: as §1

[6] = system: primary AML patient cells (S019)
Method in brief: as §1

[7] = system: primary AML patient cells (S021)
Method in brief: as §1

[8] = system: primary AML patient cells (S025)
Method in brief: as §1

[9] = system: primary AML patient cells (S037)
Method in brief: as §1

[10] = system: primary AML patient cells (S081)
Method in brief: as §1

[11] = system: primary AML patient cells (S085)
Method in brief: as §1

[12] = system: primary AML patient cells (S091)
Method in brief: as §1

[13] = system: primary B-PLL patient cells (S016)
Method in brief: as §1

[14] = system: primary BL patient cells (S005)
Method in brief: as §1

[15] = system: primary FL patient cells (S022)
Method in brief: as §1

[16] = system: primary FL patient cells (S087)
Method in brief: as §1

[17] = system: primary MCL patient cells (S041)
Method in brief: as §1

[18] = system: primary MCL patient cells (S053)
Method in brief: as §1

[19] = system: primary MCL patient cells (S068)
Method in brief: as §1

[20] = system: primary T-PLL patient cells (S008)
Method in brief: as §1

With `CC(C)c1cc(-c2n[nH]c(=O)n2-c2ccc3c(ccn3C)c2)c(O)cc1O` [Ganetespib] the viability ([1]; 0.0032 µM) was 0.957, the viability ([1]; 0.016 µM) was 0.414 and the viability ([1]; 0.08 µM) was 0.328. The viability ([1]; 0.4 µM) was 0.326, the viability ([1]; 2 µM) was 0.323 and the viability ([2]; 0.0032 µM) was 0.953. For the same compound, the viability ([2]; 0.016 µM) was 0.743, the viability ([2]; 0.08 µM) was 0.542 and the viability ([2]; 0.4 µM) was 0.56. For the same compound, the viability ([2]; 2 µM) was 0.567, the viability ([3]; 0.0032 µM) was 1.13 and the viability ([3]; 0.016 µM) was 0.778. It also gave a viability ([3]; 0.08 µM) of 0.624, a viability ([3]; 0.4 µM) of 0.684 and a viability ([3]; 2 µM) of 0.644. For the same compound, the viability ([4]; 0.0032 µM) was 0.991, the viability ([4]; 0.016 µM) was 0.964 and the viability ([4]; 0.08 µM) was 0.131. It also gave a viability ([4]; 0.4 µM) of 0.126, a viability ([4]; 2 µM) of 0.121 and a viability ([5]; 0.0032 µM) of 1.07. It also gave a viability ([5]; 0.016 µM) of 0.996, a viability ([5]; 0.08 µM) of 0.371 and a viability ([5]; 0.4 µM) of 0.326. The viability ([5]; 2 µM) was 0.31, the viability ([6]; 0.0032 µM) was 0.923 and the viability ([6]; 0.016 µM) was 0.682. The viability ([6]; 0.08 µM) was 0.411, the viability ([6]; 0.4 µM) was 0.465 and the viability ([6]; 2 µM) was 0.444. It also gave a viability ([7]; 0.0032 µM) of 0.917, a viability ([7]; 0.016 µM) of 0.742 and a viability ([7]; 0.08 µM) of 0.53. For the same compound, the viability ([7]; 0.4 µM) was 0.637, the viability ([7]; 2 µM) was 0.617 and the viability ([8]; 0.0032 µM) was 0.936. For the same compound, the viability ([8]; 0.016 µM) was 0.579, the viability ([8]; 0.08 µM) was 0.343 and the viability ([8]; 0.4 µM) was 0.334. For the same compound, the viability ([9]; 0.0032 µM) was 0.976, the viability ([9]; 0.016 µM) was 0.988 and the viability ([9]; 0.08 µM) was 0.947. It also gave a viability ([9]; 0.4 µM) of 0.979, a viability ([9]; 2 µM) of 0.937 and a viability ([10]; 0.0032 µM) of 0.981. The viability ([10]; 0.016 µM) was 0.674, the viability ([10]; 0.08 µM) was 0.0862 and the viability ([10]; 0.4 µM) was 0.0773. The viability ([10]; 2 µM) was 0.0742, the viability ([11]; 0.0032 µM) was 0.973 and the viability ([11]; 0.016 µM) was 0.648. It also gave a viability ([11]; 0.08 µM) of 0.195, a viability ([11]; 0.4 µM) of 0.251 and a viability ([11]; 2 µM) of 0.264. The viability ([12]; 0.0032 µM) was 0.926, the viability ([12]; 0.016 µM) was 0.901 and the viability ([12]; 0.08 µM) was 0.364. For the same compound, the viability ([12]; 0.4 µM) was 0.259, the viability ([12]; 2 µM) was 0.26 and the viability ([13]; 0.0032 µM) was 1.03. It also gave a viability ([13]; 0.016 µM) of 0.967, a viability ([13]; 0.08 µM) of 0.569 and a viability ([13]; 0.4 µM) of 0.552. For the same compound, the viability ([13]; 2 µM) was 0.514, the viability ([14]; 0.0032 µM) was 0.871 and the viability ([14]; 0.016 µM) was 0.871. For the same compound, the viability ([14]; 0.08 µM) was 0.637, the viability ([14]; 0.4 µM) was 0.725 and the viability ([14]; 2 µM) was 0.716. It also gave a viability ([15]; 0.0032 µM) of 0.919, a viability ([15]; 0.016 µM) of 0.865 and a viability ([15]; 0.08 µM) of 0.833. For the same compound, the viability ([15]; 0.4 µM) was 0.764, the viability ([15]; 2 µM) was 0.727 and the viability ([16]; 0.0032 µM) was 1.01. It also gave a viability ([16]; 0.016 µM) of 1.01, a viability ([16]; 0.08 µM) of 0.853 and a viability ([16]; 0.4 µM) of 0.881. It also gave a viability ([16]; 2 µM) of 0.848, a viability ([17]; 0.0032 µM) of 0.98 and a viability ([17]; 0.016 µM) of 0.846. It also gave a viability ([17]; 0.08 µM) of 0.533, a viability ([17]; 0.4 µM) of 0.406 and a viability ([17]; 2 µM) of 0.404. It also gave a viability ([18]; 0.0032 µM) of 0.941, a viability ([18]; 0.016 µM) of 0.809 and a viability ([18]; 0.08 µM) of 0.326. The viability ([18]; 0.4 µM) was 0.332, the viability ([18]; 2 µM) was 0.325 and the viability ([19]; 0.0032 µM) was 1.02. For the same compound, the viability ([19]; 0.016 µM) was 1.13, the viability ([19]; 0.08 µM) was 0.532 and the viability ([19]; 0.4 µM) was 0.535. The viability ([19]; 2 µM) was 0.545, the viability ([20]; 0.0032 µM) was 0.937 and the viability ([20]; 0.016 µM) was 1. The viability ([20]; 0.08 µM) was 0.939, the viability ([20]; 0.4 µM) was 0.988 and the viability ([20]; 2 µM) was 0.961.
